Data on 15 compounds can be found in ChEMBL document CHEMBL1165865, “Design, synthesis and determination of antifungal activity of 5(6)-substituted benzotriazoles” (2010).

Converted amounts (≈) assume the structure as drawn.

Assay type in all cases: functional
Experiment [1] deals with Candida albicans. Briefly: Antifungal activity against Candida albicans ATCC 90028 after 24 hrs by macrodilution method. To be noted: ATCC 90028, 24 h.
Experiment [2] relates to Pichia kudriavzevii. Briefly: Antifungal activity against Candida krusei ATCC 30068 after 24 hrs by macrodilution method. To be noted: ATCC 30068, 24 h.
Experiment [3] deals with Aspergillus niger. Briefly: Antifungal activity against Aspergillus niger DSMZ 737 after 24 hrs by macrodilution method. To be noted: DSMZ 737, 24 h.
The subject of experiment [4] is Saccharomyces cerevisiae. Briefly: Antifungal activity against Saccharomyces cerevisiae DSMZ 1333 after 24 hrs by macrodilution method. The following applies: DSMZ 1333, 24 h.
In experiment [5] the test system is Nakaseomyces glabratus. Briefly: Antifungal activity against Candida glabrata ATCC 3916 after 24 hrs by macrodilution method. To be noted: ATCC 3916, 24 h.
The subject of experiment [6] is Candida parapsilosis. Briefly: Antifungal activity against Candida parapsilosis ATCC 22019 after 24 hrs by macrodilution method. The following applies: Lodderomyces parapsilosis, ATCC 22019, 24 h.

For `Cc1ccc2c(c1)nnn2CC(O)(Cn1cncn1)c1ccc(F)cc1F` (racemic), the MIC was found to be 12.5 µg/mL (≈ 33.8 µM) in experiment [1]; 25 µg/mL (≈ 67.5 µM) in experiment [2]; 50 µg/mL (≈ 135 µM) in experiment [3]; 6.2 µg/mL (≈ 16.7 µM) in experiment [4]; 25 µg/mL (≈ 67.5 µM) in experiment [5]; 12.5 µg/mL (≈ 33.8 µM) in experiment [6].
Turning to `O=[N+]([O-])c1ccc2nnn(CC(O)(Cn3cncn3)c3ccc(F)cc3F)c2c1` (racemic), the MIC is 50 µg/mL (≈ 125 µM) in experiment [1]; more than 100 µg/mL in experiment [2]; 100 µg/mL (≈ 249 µM) in experiment [3]; 100 µg/mL (≈ 249 µM) in experiment [4]; more than 100 µg/mL in experiment [5]; 100 µg/mL (≈ 249 µM) in experiment [6].
As to `OC(Cn1cncn1)(Cn1nnc2cccnc21)c1ccc(F)cc1F` (racemic), the MIC is 6.2 µg/mL (≈ 17.4 µM) in experiment [1]; 100 µg/mL (≈ 280 µM) in experiment [2]; 100 µg/mL (≈ 280 µM) in experiment [3]; 50 µg/mL (≈ 140 µM) in experiment [4]; 100 µg/mL (≈ 280 µM) in experiment [5]; 25 µg/mL (≈ 70 µM) in experiment [6].
In the case of `OC(Cn1cncn1)(Cn1nnc2cc(F)ccc21)c1ccc(F)cc1F` (racemic), the minimal inhibitory concentration (MIC) in experiment [1] was 25 µg/mL (≈ 66.8 µM); in experiment [2] it was 50 µg/mL (≈ 134 µM); in experiment [3] it was 100 µg/mL (≈ 267 µM); in experiment [4], 12.5 µg/mL (≈ 33.4 µM); in experiment [5] it was 25 µg/mL (≈ 66.8 µM); in experiment [6], 3.1 µg/mL (≈ 8.28 µM).
`O=[N+]([O-])c1ccc2c(c1)nnn2CC(O)(Cn1cncn1)c1ccc(F)cc1F` (racemic): the MIC came out at 1.6 µg/mL (≈ 3.99 µM) in experiment [1]; 50 µg/mL (≈ 125 µM) in experiment [2]; 100 µg/mL (≈ 249 µM) in experiment [3]; 12.5 µg/mL (≈ 31.1 µM) in experiment [4]; 100 µg/mL (≈ 249 µM) in experiment [5]; 6.2 µg/mL (≈ 15.4 µM) in experiment [6].
`OC(Cn1cncn1)(Cn1nnc2ccc(F)cc21)c1ccc(F)cc1F` (racemic): the minimum inhibitory concentration (MIC) in experiment [1] is 12.5 µg/mL (≈ 33.4 µM); in experiment [2] it was more than 100 µg/mL; in experiment [3] it was more than 100 µg/mL; in experiment [4] it was 6.2 µg/mL (≈ 16.6 µM); in experiment [5], more than 100 µg/mL; in experiment [6], 25 µg/mL (≈ 66.8 µM).
As for `Cc1cc2nnn(CC(O)(Cn3cncn3)c3ccc(F)cc3F)c2cc1C` (racemic), the minimum inhibitory concentration (MIC) in experiment [1] is 12.5 µg/mL (≈ 32.5 µM); in experiment [2] it was more than 100 µg/mL; in experiment [3], 100 µg/mL (≈ 260 µM); in experiment [4] it was 50 µg/mL (≈ 130 µM); in experiment [5], 100 µg/mL (≈ 260 µM); in experiment [6] it was 50 µg/mL (≈ 130 µM).
In the case of `OC(Cn1cncn1)(Cn1nnc2cc(Cl)ccc21)c1ccc(F)cc1F` (racemic), the minimum inhibitory concentration (MIC) in experiment [1] is 6.2 µg/mL (≈ 15.9 µM); in experiment [2], more than 100 µg/mL; in experiment [3], 25 µg/mL (≈ 64 µM); in experiment [4] it was 6.2 µg/mL (≈ 15.9 µM); in experiment [5], 50 µg/mL (≈ 128 µM); in experiment [6], 12.5 µg/mL (≈ 32 µM).
Regarding `OC(Cn1cncn1)(Cn1nnc2ccc(Cl)cc21)c1ccc(F)cc1F` (racemic), the MIC in experiment [1] is 6.2 µg/mL (≈ 15.9 µM); in experiment [2], 100 µg/mL (≈ 256 µM); in experiment [3], more than 100 µg/mL; in experiment [4] it was 100 µg/mL (≈ 256 µM); in experiment [5], more than 100 µg/mL; in experiment [6], 100 µg/mL (≈ 256 µM).
Turning to `Cc1ccc2nnn(CC(O)(Cn3cncn3)c3ccc(F)cc3F)c2c1` (racemic), the minimum inhibitory concentration (MIC) was 25 µg/mL (≈ 67.5 µM) in experiment [1]; 25 µg/mL (≈ 67.5 µM) in experiment [2]; 12.5 µg/mL (≈ 33.8 µM) in experiment [3]; 6.2 µg/mL (≈ 16.7 µM) in experiment [4]; 50 µg/mL (≈ 135 µM) in experiment [5]; 6.2 µg/mL (≈ 16.7 µM) in experiment [6].
As to `COc1ccc2c(c1)nnn2CC(O)(Cn1cncn1)c1ccc(F)cc1F` (racemic), the minimum inhibitory concentration (MIC) came out at 12.5 µg/mL (≈ 32.4 µM) in experiment [1]; 50 µg/mL (≈ 129 µM) in experiment [2]; 100 µg/mL (≈ 259 µM) in experiment [3]; 25 µg/mL (≈ 64.7 µM) in experiment [4]; 50 µg/mL (≈ 129 µM) in experiment [5]; 12.5 µg/mL (≈ 32.4 µM) in experiment [6].
Take `Cc1cc2nn(CC(O)(Cn3cncn3)c3ccc(F)cc3F)nc2cc1C` (racemic): the MIC in experiment [1] is 1.6 µg/mL (≈ 4.16 µM); in experiment [2], 100 µg/mL (≈ 260 µM); in experiment [3] it was 25 µg/mL (≈ 65 µM); in experiment [4], 6.2 µg/mL (≈ 16.1 µM); in experiment [5] it was 25 µg/mL (≈ 65 µM); in experiment [6], 3.1 µg/mL (≈ 8.06 µM).
Regarding `OC(Cn1cncn1)(Cn1nnc2ccccc21)c1ccc(F)cc1F` (racemic), the minimal inhibitory concentration (MIC) in experiment [1] was 0.8 µg/mL (≈ 2.25 µM); in experiment [2] it was 25 µg/mL (≈ 70.2 µM); in experiment [3] it was more than 100 µg/mL; in experiment [4] it was 1.6 µg/mL (≈ 4.49 µM); in experiment [5] it was 25 µg/mL (≈ 70.2 µM); in experiment [6], 0.8 µg/mL (≈ 2.25 µM).
As for `C[C@@H]1[C@H](O)[C@@H](C)/C=C/C=C/C=C/C=C/C=C/C=C/C=C/[C@H](O[C@@H]2O[C@H](C)[C@@H](O)[C@H](N)[C@@H]2O)C[C@@H]2O[C@](O)(C[C@@H](O)C[C@@H](O)[C@H](O)CC[C@@H](O)C[C@@H](O)CC(=O)O[C@H]1C)C[C@H](O)[C@H]2C(=O)O` [AMPHOTERICIN B], the minimal inhibitory concentration (MIC) in experiment [1] was 0.4 µg/mL (≈ 0.433 µM); in experiment [2], 0.4 µg/mL (≈ 0.433 µM); in experiment [3], 0.8 µg/mL (≈ 0.866 µM); in experiment [4], 0.4 µg/mL (≈ 0.433 µM); in experiment [5], 0.4 µg/mL (≈ 0.433 µM); in experiment [6], 0.4 µg/mL (≈ 0.433 µM).
For the compound `OC(Cn1cncn1)(Cn1cncn1)c1ccc(F)cc1F` [FLUCONAZOLE], the MIC is 0.8 µg/mL (≈ 2.61 µM) in experiment [1]; 50 µg/mL (≈ 163 µM) in experiment [2]; more than 100 µg/mL in experiment [3]; 0.8 µg/mL (≈ 2.61 µM) in experiment [4]; 50 µg/mL (≈ 163 µM) in experiment [5]; 0.8 µg/mL (≈ 2.61 µM) in experiment [6].

Usually MIC stands for the lowest concentration found to suppress growth. Read a low MIC as greater potency.
